In ChEMBL document CHEMBL5463729, “Data for DCP probe BAY 1753011” (2023):

Legend:
[1] = biological target: Purinergic P2Y (Rattus norvegicus) (UniProt O35811+Q9EPX4+P49651+Q63371+P41232+O35881+Q6GUG4); experiment: Inhibition of Purinergic P2Y at compound concentration of 10.0 uM in the Eurofins-Panlabs radioligand binding assay (Eurofins_assay_268820); type: protein assay; design: ligand concentration 0.1 nM; settings: Compound concentration 10.0 uM
[2] = biological target: Transient receptor potential cation channel subfamily M member 7 (Homo sapiens) (UniProt Q96QT4); experiment: Inhibition of ChaK1(h) at 10.0 µM in the Eurofins Kinase panel; settings: Compound concentration 10.0 uM
Chain of Transient receptor potential cation channel subfamily M member 7 (Homo sapiens) (Q96QT4 whole entry): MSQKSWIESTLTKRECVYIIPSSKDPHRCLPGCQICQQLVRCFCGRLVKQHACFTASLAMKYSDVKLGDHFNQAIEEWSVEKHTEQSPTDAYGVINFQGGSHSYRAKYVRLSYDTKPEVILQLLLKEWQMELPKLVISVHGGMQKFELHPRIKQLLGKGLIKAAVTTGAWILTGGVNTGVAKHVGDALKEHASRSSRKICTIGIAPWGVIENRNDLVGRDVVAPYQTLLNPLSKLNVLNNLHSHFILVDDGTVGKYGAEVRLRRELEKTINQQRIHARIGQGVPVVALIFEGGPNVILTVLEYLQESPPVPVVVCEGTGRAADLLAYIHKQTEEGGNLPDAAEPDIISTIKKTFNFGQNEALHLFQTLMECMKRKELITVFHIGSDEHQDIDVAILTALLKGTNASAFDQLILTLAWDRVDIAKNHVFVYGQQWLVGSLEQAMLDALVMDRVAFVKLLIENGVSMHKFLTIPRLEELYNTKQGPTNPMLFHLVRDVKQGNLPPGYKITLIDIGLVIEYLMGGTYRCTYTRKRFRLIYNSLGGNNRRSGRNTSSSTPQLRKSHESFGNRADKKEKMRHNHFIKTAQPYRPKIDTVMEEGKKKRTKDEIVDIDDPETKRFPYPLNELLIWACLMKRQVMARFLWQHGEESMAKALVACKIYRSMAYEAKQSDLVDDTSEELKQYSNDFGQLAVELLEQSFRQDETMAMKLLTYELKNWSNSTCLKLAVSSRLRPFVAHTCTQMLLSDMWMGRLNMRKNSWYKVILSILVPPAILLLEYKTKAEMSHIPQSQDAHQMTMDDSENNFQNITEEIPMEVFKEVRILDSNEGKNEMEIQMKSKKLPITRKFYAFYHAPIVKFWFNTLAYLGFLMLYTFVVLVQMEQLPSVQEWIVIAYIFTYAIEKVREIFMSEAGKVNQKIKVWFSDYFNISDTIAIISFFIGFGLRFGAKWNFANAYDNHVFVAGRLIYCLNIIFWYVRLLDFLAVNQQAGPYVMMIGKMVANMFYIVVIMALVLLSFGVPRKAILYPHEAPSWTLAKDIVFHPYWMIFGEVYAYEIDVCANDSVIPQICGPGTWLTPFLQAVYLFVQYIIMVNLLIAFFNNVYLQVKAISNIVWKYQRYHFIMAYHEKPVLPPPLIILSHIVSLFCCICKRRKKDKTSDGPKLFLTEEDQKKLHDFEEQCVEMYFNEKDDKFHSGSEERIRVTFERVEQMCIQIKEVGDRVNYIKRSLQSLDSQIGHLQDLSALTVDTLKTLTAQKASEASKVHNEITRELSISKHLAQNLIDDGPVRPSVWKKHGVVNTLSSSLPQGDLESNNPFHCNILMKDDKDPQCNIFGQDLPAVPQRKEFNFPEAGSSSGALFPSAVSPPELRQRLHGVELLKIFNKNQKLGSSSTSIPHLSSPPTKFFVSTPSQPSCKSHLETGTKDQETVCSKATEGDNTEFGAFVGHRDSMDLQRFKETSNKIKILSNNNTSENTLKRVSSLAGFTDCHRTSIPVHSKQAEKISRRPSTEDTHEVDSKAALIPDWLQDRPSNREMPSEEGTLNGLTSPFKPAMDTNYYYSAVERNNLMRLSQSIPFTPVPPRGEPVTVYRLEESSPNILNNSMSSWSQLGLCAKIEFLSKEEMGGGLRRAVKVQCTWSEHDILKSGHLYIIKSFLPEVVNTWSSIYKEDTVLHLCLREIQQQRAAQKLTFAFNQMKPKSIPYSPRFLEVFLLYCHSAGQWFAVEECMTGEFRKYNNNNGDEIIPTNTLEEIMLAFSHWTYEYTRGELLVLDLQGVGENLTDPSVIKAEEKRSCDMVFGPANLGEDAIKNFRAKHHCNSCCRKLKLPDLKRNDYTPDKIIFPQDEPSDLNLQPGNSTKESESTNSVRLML

[3] = biological target: Glycogen synthase kinase-3 alpha (Homo sapiens) (UniProt P49840); experiment: Inhibition of GSK3alpha(h) at 10.0 µM in the Eurofins Kinase panel; settings: Compound concentration 10.0 uM
[4] = biological target: Serine/threonine-protein kinase ICK (Homo sapiens) (UniProt Q9UPZ9); experiment: Inhibition of ICK(h) at 10.0 µM in the Eurofins Kinase panel; settings: Compound concentration 10.0 uM
Chain of Serine/threonine-protein kinase ICK (Homo sapiens) (Q9UPZ9 whole entry): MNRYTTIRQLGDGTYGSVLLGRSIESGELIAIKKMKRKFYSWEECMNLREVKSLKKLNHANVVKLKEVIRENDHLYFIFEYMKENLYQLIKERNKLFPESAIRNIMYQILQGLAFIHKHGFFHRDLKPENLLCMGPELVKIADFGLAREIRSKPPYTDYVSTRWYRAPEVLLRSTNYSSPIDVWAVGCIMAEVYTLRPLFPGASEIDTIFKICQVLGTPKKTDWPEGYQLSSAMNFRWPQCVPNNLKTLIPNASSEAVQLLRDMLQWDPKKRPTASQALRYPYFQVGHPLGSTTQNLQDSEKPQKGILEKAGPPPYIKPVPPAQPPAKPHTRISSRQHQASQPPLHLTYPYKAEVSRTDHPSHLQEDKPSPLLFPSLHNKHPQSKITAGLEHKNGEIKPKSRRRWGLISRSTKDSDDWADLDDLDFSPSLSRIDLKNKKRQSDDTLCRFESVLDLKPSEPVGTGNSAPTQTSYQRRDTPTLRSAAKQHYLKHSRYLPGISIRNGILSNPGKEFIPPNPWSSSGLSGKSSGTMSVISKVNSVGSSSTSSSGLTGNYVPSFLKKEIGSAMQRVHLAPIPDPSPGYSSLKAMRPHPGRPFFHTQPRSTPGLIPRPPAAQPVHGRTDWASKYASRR

[5] = biological target: Insulin-like growth factor 1 receptor (Homo sapiens) (UniProt P08069); experiment: Inhibition of IGF-1R(h) at 10.0 µM in the Eurofins Kinase panel; settings: Compound concentration 10.0 uM
[6] = biological target: MAP kinase-interacting serine/threonine-protein kinase 1 (Homo sapiens) (UniProt Q9BUB5); experiment: Inhibition of Mnk1(h) at 10.0 µM in the Eurofins Kinase panel; settings: Compound concentration 10.0 uM
[7] = biological target: [Pyruvate dehydrogenase (acetyl-transferring)] kinase isozyme 2, mitochondrial (Homo sapiens) (UniProt Q15119); experiment: Inhibition of PDHK2(h) at 10.0 µM in the Eurofins Kinase panel; settings: Compound concentration 10.0 uM
[8] = biological target: STE20-like serine/threonine-protein kinase (Homo sapiens) (UniProt Q9H2G2); experiment: Inhibition of SLK(h) at 10.0 µM in the Eurofins Kinase panel; settings: Compound concentration 10.0 uM
[9] = biological target: Wee1-like protein kinase (Homo sapiens) (UniProt P30291); experiment: Inhibition of WEE1(h) at 10.0 µM in the Eurofins Kinase panel; settings: Compound concentration 10.0 uM
[10] = biological target: Cannabinoid receptor 2 (Homo sapiens) (UniProt P34972); settings: Compound concentration 10.0 uM
Chain of Cannabinoid receptor 2 (Homo sapiens) (P34972 whole entry): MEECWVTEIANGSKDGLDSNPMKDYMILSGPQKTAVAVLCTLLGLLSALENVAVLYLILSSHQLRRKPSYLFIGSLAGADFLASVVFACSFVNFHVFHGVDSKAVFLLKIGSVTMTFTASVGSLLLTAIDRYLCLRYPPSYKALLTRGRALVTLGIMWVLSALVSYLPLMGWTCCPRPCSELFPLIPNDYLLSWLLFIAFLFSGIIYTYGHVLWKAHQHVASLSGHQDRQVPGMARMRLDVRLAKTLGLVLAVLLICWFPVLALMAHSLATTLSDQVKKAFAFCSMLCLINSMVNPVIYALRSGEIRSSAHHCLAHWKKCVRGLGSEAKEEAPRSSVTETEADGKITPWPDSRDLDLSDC

[11] = biological target: B1 bradykinin receptor (Homo sapiens) (UniProt P46663); settings: Compound concentration 10.0 uM
[12] = biological target: Epidermal growth factor receptor (Homo sapiens) (UniProt P00533); experiment: Inhibition of Epidermal Growth Factor (EGF) at 10 µM in the Eurofins-Panlabs radioligand binding assay (Eurofins_assay_225510); settings: Compound concentration 10.0 uM
Chain of Epidermal growth factor receptor (Homo sapiens) (P00533 whole entry): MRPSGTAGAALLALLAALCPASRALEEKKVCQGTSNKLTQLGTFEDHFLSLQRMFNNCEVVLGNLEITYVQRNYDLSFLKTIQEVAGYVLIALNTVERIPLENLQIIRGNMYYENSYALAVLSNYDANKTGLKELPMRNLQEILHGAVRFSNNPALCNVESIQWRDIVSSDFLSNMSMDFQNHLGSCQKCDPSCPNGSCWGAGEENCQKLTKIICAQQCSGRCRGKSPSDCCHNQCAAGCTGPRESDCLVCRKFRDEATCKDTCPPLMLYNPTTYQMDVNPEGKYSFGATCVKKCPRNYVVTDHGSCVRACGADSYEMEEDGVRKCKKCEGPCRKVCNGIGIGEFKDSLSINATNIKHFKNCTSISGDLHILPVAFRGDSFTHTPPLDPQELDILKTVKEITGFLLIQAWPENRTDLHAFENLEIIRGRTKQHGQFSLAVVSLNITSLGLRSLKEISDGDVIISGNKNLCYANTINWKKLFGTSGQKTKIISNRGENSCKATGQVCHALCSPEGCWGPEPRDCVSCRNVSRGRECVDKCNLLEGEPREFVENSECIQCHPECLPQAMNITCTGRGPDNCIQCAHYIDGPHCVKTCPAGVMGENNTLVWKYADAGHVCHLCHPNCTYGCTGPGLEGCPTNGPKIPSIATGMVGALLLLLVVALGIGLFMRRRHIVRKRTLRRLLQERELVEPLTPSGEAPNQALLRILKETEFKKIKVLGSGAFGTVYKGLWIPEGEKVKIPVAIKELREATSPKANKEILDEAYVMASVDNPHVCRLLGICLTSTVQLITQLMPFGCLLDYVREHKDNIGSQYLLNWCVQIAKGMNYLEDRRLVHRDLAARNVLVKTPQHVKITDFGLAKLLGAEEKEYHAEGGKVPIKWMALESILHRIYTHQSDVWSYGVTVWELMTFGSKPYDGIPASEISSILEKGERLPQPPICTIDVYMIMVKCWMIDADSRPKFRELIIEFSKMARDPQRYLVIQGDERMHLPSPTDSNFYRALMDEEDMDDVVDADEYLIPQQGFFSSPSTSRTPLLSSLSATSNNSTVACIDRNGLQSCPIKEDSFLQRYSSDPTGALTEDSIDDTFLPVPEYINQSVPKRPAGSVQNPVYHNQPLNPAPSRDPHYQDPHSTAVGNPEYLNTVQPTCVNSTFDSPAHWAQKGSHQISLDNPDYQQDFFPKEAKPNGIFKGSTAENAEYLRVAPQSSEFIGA

[13] = biological target: Neuropeptide Y receptor type 2 (Homo sapiens) (UniProt P49146); experiment: Inhibition of Neuropeptide Y Y2 at 10 µM in the Eurofins-Panlabs radioligand binding assay (Eurofins_assay_257110); settings: Compound concentration 10.0 uM
Chain of Neuropeptide Y receptor type 2 (Homo sapiens) (P49146 whole entry): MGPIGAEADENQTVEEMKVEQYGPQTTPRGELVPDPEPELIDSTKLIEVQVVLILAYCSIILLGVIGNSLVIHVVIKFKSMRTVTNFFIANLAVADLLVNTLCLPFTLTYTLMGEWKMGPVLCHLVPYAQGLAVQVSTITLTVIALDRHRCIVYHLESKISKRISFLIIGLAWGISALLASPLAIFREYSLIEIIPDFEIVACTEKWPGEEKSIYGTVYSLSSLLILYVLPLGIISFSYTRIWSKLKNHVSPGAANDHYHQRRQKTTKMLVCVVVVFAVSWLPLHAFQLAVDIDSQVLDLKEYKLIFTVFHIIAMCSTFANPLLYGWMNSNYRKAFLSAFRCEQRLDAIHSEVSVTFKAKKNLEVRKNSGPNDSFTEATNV

Homo sapiens = species on record: Homo sapiens; experiment: Inhibition of Nicotinic Acetylcholine at compound concentration of 10.0 uM in the Eurofins-Panlabs radioligand binding assay (Eurofins_assay_258590); type: protein-complex assay; settings: Compound concentration 10.0 uM
[14] = biological target: Sigma non-opioid intracellular receptor 1 (Homo sapiens) (UniProt Q99720); experiment: Inhibition of Sigma 1 at 10 µM in the Eurofins-Panlabs radioligand binding assay (Eurofins_assay_278110); design: ligand concentration 8 nM; settings: Compound concentration 10.0 uM
Chain of Sigma non-opioid intracellular receptor 1 (Homo sapiens) (Q99720 whole entry): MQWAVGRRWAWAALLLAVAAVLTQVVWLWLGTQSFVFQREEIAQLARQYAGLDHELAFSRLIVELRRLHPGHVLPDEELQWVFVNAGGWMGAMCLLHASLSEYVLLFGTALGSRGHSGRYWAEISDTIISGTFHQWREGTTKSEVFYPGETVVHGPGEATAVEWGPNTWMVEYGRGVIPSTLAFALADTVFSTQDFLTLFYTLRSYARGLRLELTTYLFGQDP

Sus scrofa = species on record: Sus scrofa; experiment: Inhibition of ATPase, Na+/K+, Heart at compound concentration of 10.0 uM in the Eurofins-Panlabs enzyme assay (Eurofins_assay_107710); design: substrate with concentration; settings: Compound concentration 10.0 uM
[15] = biological target: Polyunsaturated fatty acid lipoxygenase ALOX15 (Homo sapiens) (UniProt P16050); experiment: Inhibition of Lipoxygenase 15-LO at 10 µM in the Eurofins-Panlabs enzyme assay (Eurofins_assay_138000); settings: Oryctolagus cuniculus; Compound concentration 10.0 uM
[16] = biological target: Mitogen-activated protein kinase 14 (Homo sapiens) (UniProt Q16539); experiment: Inhibition of Protein Serine/Threonine Kinase, MAPK14 (p38α) at 10 µM in the Eurofins-Panlabs enzyme assay (Eurofins_assay_176610); design: substrate with concentration; settings: Compound concentration 10.0 uM
[17] = biological target: Epidermal growth factor receptor (Homo sapiens) (UniProt P00533); experiment: Inhibition of Protein Tyrosine Kinase, EGF Receptor at 10 µM in the Eurofins-Panlabs enzyme assay (Eurofins_assay_170020); design: substrate with concentration; settings: Compound concentration 10.0 uM
[18] = biological target: Receptor tyrosine-protein kinase erbB-2 (Homo sapiens) (UniProt P04626); experiment: Inhibition of Protein Tyrosine Kinase, ERBB2 (HER2) at 10 µM in the Eurofins-Panlabs enzyme assay (Eurofins_assay_174020); design: substrate with concentration; settings: Compound concentration 10.0 uM
[19] = biological target: Tyrosine-protein kinase Fyn (Homo sapiens) (UniProt P06241); experiment: Inhibition of Protein Tyrosine Kinase, Fyn at 10 µM in the Eurofins-Panlabs enzyme assay (Eurofins_assay_172020); design: substrate with concentration; settings: Compound concentration 10.0 uM
[20] = biological target: Calcitonin receptor (Homo sapiens) (UniProt P30988); experiment: Inhibition of Calcitonin at 10 µM in the Eurofins-Panlabs radioligand binding assay (Eurofins_assay_213610); settings: Compound concentration 10.0 uM
[21] = biological target: C-C chemokine receptor type 4 (Homo sapiens) (UniProt P51679); experiment: Inhibition of Chemokine CCR4 at 10 µM in the Eurofins-Panlabs radioligand binding assay (Eurofins_assay_217660); settings: Compound concentration 10.0 uM
[22] = biological target: Melanocortin receptor 3 (Homo sapiens) (UniProt P41968); experiment: Inhibition of Melanocortin MC3 at 10 µM in the Eurofins-Panlabs radioligand binding assay (Eurofins_assay_251300); design: ligand concentration 0.035 nM; settings: Compound concentration 10.0 uM
[23] = biological target: Melanocortin receptor 4 (Homo sapiens) (UniProt P32245); experiment: Inhibition of Melanocortin MC4 at 10 µM in the Eurofins-Panlabs radioligand binding assay (Eurofins_assay_251350); design: ligand concentration 0.02 nM; settings: Compound concentration 10.0 uM
Chain of Melanocortin receptor 4 (Homo sapiens) (P32245 whole entry): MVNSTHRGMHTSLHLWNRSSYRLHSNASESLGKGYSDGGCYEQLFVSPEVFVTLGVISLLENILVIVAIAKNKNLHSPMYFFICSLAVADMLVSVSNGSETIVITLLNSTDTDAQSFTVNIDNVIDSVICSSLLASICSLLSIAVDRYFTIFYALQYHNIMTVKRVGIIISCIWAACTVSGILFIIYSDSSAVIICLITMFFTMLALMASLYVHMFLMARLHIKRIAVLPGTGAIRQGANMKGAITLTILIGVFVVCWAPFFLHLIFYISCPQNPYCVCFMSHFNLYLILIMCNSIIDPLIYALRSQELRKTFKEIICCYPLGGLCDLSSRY

[24] = biological target: 5-hydroxytryptamine receptor 4 (Homo sapiens) (UniProt Q13639); experiment: Inhibition of Serotonin (5-Hydroxytryptamine) 5-HT4 at 10 µM in the Eurofins-Panlabs radioligand binding assay (Eurofins_assay_272000); settings: Cavia porcellus; Compound concentration 10.0 uM
[25] = biological target: Glycogen synthase kinase-3 beta (Homo sapiens) (UniProt P49841); experiment: Inhibition of GSK3beta(h) at 10.0 µM in the Eurofins Kinase panel; settings: Compound concentration 10.0 uM
[26] = biological target: Angiopoietin-1 receptor (Homo sapiens) (UniProt Q02763); experiment: Inhibition of Tie2(h) at 10.0 µM in the Eurofins Kinase panel; settings: Compound concentration 10.0 uM
[27] = biological target: T1, Alpha-1A adrenergic receptor (Homo sapiens) (UniProt P35348); settings: Compound concentration 10.0 uM
T1 sequence (whole entry): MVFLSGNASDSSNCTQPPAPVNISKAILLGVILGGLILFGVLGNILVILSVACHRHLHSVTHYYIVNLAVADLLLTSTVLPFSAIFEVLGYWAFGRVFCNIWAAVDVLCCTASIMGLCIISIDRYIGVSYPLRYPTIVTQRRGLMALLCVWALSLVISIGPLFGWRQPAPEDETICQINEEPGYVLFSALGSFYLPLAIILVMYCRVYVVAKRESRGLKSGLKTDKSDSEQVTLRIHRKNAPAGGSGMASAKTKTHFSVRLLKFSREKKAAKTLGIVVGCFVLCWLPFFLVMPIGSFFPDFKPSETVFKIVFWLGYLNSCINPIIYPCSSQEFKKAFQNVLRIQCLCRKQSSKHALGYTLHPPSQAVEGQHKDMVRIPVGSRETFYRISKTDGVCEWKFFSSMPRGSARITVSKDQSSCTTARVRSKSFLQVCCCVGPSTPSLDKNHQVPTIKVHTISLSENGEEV

## O=c1n(Cc2cncn2-c2cccc(Cl)c2)nc(-c2ccc(Cl)cc2)n1C[C@H](O)C(F)(F)F
[1]
  inhibition: 4%
[2]
  inhibition: -0.03%
[3]
  inhibition: -1.7%
[4]
  inhibition: -9.83%
[5]
  inhibition: -8.87%
[6]
  inhibition: -9.85%
[7]
  inhibition: -4.87%
[8]
  inhibition: 0.22%
[9]
  inhibition: -5.39%
[10]
  inhibition: 14%
[11]
  inhibition: -3%

## C[C@H](O)c1nc(Cn2nc(-c3ccc(Cl)cc3)n(C[C@H](O)C(F)(F)F)c2=O)nn1-c1cccc(Cl)c1 [PECAVAPTAN]
[12]
  inhibition: 14%
[13]
  inhibition: 6%
Homo sapiens
  inhibition: -6%
[14]
  inhibition: 15%
Sus scrofa
  inhibition: 0%
[15]
  inhibition: 4%
[16]
  inhibition: -1%
[17]
  inhibition: -6%
[18]
  inhibition: 15%
[19]
  inhibition: -6%
[20]
  inhibition: -7%
[21]
  inhibition: -2%
[22]
  inhibition: 6%
[23]
  inhibition: 4%
[24]
  inhibition: 19%
[25]
  inhibition: -4.15%
[26]
  inhibition: -8.17%
[27]
  inhibition: -2.04%
